Experiments:
[1] = target: ECFP-eDHFR and YFP-FKBP(F36V) (UniProt P0ABQ4+P62942, F37V); assay: FRET titration of ligand-induced heterodimerization of recombinant fusion proteins; assay type: binding; conditions: 400 nM ECFP-eDHFR and 400 nM YFP-FKBP(F36V)
[2] = target: eDHFR and FKBP(F36V) (UniProt P0ABQ4+P62942, F37V); assay: Size exclusion chromatography and SDS-PAGE of eDHFR / FKBP(F36V) mixture with ligand; assay type: binding
Experimental: FIG. 1: Efficiency and specificity of SLF′-TMP (compound 13) binding (comp. example 2). • In the absence of SLF′-TMP (solid line) or in the presence of 100 μM SLF′-TMP (compound 13, dashed line). • a) size exclusion chromatography profile • b) SDS-PAGE analysis
A size exclusion chromatography profile of a mixture of 100 μM eDHFR and FKBP(F36V) was performed in the absence or the presence of 100 μM SLF′-TMP (compound 13) (see FIG. 1a).
A SDS-PAGE analysis of fractions from the gel filtration was carried out in the absence and the presence of the ligand SLF′-TMP (compound 13), respectively (see FIG. 1b).

`CCC(C(=O)N1CCCCC1C(=O)O[C@H](CCc1ccc(OC)c(OC)c1)c1cccc(OCC(=O)NCCCOCCOCCOCCCNC(=O)COc2c(OC)cc(Cc3cnc(N)nc3N)cc2OC)c1)c1cc(OC)c(OC)c(OC)c1` (stereo partly shown) [SLF′-TMP] was tested, and the “FRET signal (ratio of fluorescence 523 nm / 475 nm) upon titration” value [1] was “dose-dependent increase”, the Kd ([1]; quadratic fit, read-out: dissociation constant Kd from FRET titration) was 0.12 ± 0.04 µM and the “binding to FKBP(F36V) and eDHFR by size exclusion chromatography” value ([2]; 100 μM eDHFR and FKBP(F36V), 100 μM ligand) was “binds effectively”. For the same compound, the “binding to FKBP(F36V) and eDHFR by SDS-PAGE of gel filtration fractions” value ([2]; presence versus absence of ligand) was “binds to FKBP(F36V) and eDHFR”.

— patent publication US20150168420A1, “BIOORTHOGONAL CHEMICAL INDUCERS OF REVERSIBLE DIMERIZATION FOR CONTROL OF PROTEIN FUNCTION IN CELLS” (MAX-PLANCK-GESELLSCHAFT ZUR FÖRDERUNG DER WISSENSCHAFTEN …, priority 2012, published 2015)
